From PMC6321071, “Chenodeoxycholic Acid from Bile Inhibits Influenza A Virus Replication via Blocking Nuclear Export of Viral Ribonucleoprotein Complexes” (Molecules, 2018)
Where a name gives a salt, the structure may show the parent alone. Read-outs that look alike come from different tables or passages of the source.

Columns and labels:
[1] = tested on: H9N2; assay: microbe, parasite or virus in culture; type: cell-based, Influenza A virus A/Chicken/Guangdong/96 (H9N2); conditions: Influenza A virus, H9N2, MDCK, read-out: IC50 (H9N2)
[2] = tested on: PR8 (H1N1); assay: microbe, parasite or virus in culture; type: cell-based, Influenza A virus A/Puerto Rico/8/34 (PR8); conditions: Influenza A virus, A549, read-out: IC50 (PR8 (H1N1))
[3] = tested on: influenza A virus (H5N1, H9N2, H1N1); assay: microbe, parasite or virus in culture; type: cell-based; conditions: for IC50: Influenza A virus, read-out: IC50 range over three IAV subtypes
[4] = tested on: H5N1; assay: microbe, parasite or virus in culture; type: cell-based, Influenza A virus A/Duck/Guangdong/99 (H5N1); conditions: Influenza A virus, H5N1, A549, read-out: IC50 (H5N1)
[5] = tested on: PR8 (H1N1); assay: microbe, parasite or virus in culture; type: cell-based, Influenza A virus A/Puerto Rico/8/34 (PR8); conditions: Influenza A virus, MDCK, read-out: IC50 (PR8 (H1N1))
[6] = tested on: H9N2; assay: microbe, parasite or virus in culture; type: cell-based, Influenza A virus A/Chicken/Guangdong/96 (H9N2); conditions: Influenza A virus, H9N2, A549, read-out: IC50 (H9N2)
[7] = MTT cytotoxicity assay on A549 cells; conditions: human
[8] = MTT cytotoxicity assay on MDCK cells; conditions: dog
[9] = tested on: H5N1; assay: microbe, parasite or virus in culture; type: cell-based, Influenza A virus A/Duck/Guangdong/99 (H5N1); conditions: Influenza A virus, H5N1, MDCK, read-out: IC50 (H5N1)
[10] = tested on: H5N1; type: cell-based, Influenza A virus A/Duck/Guangdong/99 (H5N1)
[11] = tested on: H9N2 virus; type: cell-based, Influenza A virus A/Chicken/Guangdong/96 (H9N2)
[12] = tested on: H5N1 virus; type: cell-based, Influenza A virus A/Duck/Guangdong/99 (H5N1)
[13] = tested on: A549 cells; assay: MTT cytotoxicity assay on A549 cells; conditions: 48 or 72 h treatment, MTT
[14] = tested on: MDCK cells; assay: MTT cytotoxicity assay on MDCK cells; conditions: 48 or 72 h treatment, MTT
[15] = tested on: nuclear export of viral RNP complexes (H5N1); type: cell-based, Influenza A virus A/Duck/Guangdong/99 (H5N1)
[16] = tested on: PR8 (H1N1); type: cell-based, Influenza A virus A/Puerto Rico/8/34 (PR8)
[17] = tested on: H5N1; type: cell-based, Influenza A virus A/Duck/Guangdong/99 (H5N1); conditions: 60 μM

Structure (SMILES) | IC50 [1] [µM] | IC50 [2] [µM] | IC50 [3] [µM] | IC50 [4] [µM] | IC50 [5] [µM] | IC50 [6] [µM] | CC50 [7] [µM] | CC50 [8] [µM] | IC50 [9] [µM] | nuclear export of vRNP complexes [15] | also measured
C[C@H](CCC(=O)O)[C@H]1CC[C@H]2[C@@H]3C[C@H](O)[C@@H]4C[C@H](O)CC[C@]4(C)[C@H]3CC[C@]12C [HDCA, hyodeoxycholic acid] | 31 ± 2.2 | 73.7 ± 6.7 | 31 to 73.7 | 60 ± 5.5 | 43.5 ± 2.7 | 53 ± 6.5 | 486 ± 55 | 414 ± 33.7 | 41.2 ± 3.5 |  | 
C[C@H](CCC(=O)O)[C@H]1CC[C@H]2[C@@H]3[C@H](O)C[C@@H]4C[C@H](O)CC[C@]4(C)[C@H]3CC[C@]12C [CDCA, Chenodeoxycholic acid] | 5.5 ± 0.7 | 7.7 ± 0.7 | 5.5 to 11.5 | 8.2 ± 1.2 | 7.2 ± 0.7 | 11.5 ± 1.7 | 372 ± 41.2 | 121 ± 9.7 | 6.5 ± 0.5 | inhibited | inhibition of virus replication (NP expression), added 4–6 and 6–8 hpi ([10]; 60 μM): more significant inhibition; anti-IAV activity, CPE (H9N2) [11]: reduced CPE; progeny virus titers [3]: significantly inhibited; H5N1 replication (CPE, NP expression) [12]: significantly inhibited; concentrations with no obvious cytotoxicity [13]: ≤ 125 µM; concentrations with no obvious cytotoxicity [14]: ≤ 62.5 µM; early NP localization events (cytosol to nucleus translocation) [15]: did not affect; anti-IAV activity, CPE (PR8 (H1N1)) [16]: reduced CPE; decrease of progeny virus yield, post-treatment [17]: more than 90%; progeny virus yield and viral NP production, pretreatment [17]: did not reduce; virus replication, cotreatment [17]: did not affect
CCC(=C/[C@H](C)C/C=C/C(C)=C/[C@@H](C)C(=O)[C@@H](C)[C@H](O)[C@@H](C)C/C(C)=C/C(=O)O)/C=C/[C@@H]1OC(=O)C=C[C@@H]1C [Leptomycin B (LMB), Leptomycin B] |  |  |  |  |  |  |  |  |  | efficiently blocked | 
NC(=O)c1ncn([C@@H]2O[C@H](CO)[C@@H](O)[C@H]2O)n1 [ribavirin, Ribavirin hydrochloride] |  |  |  |  |  |  |  |  |  | did not block | IAV inhibition (NP expression), added 6–8 hpi [10]: no inhibition; IAV inhibition (NP expression), added before 6 hpi [10]: much better IAV inhibition; reduction of progeny virus production relative to 60 μM CDCA ([3]; 90 μM): slightly more potent; inhibition of H5N1 infection (CPE, NP expression) ([12]; 90 μM): significant inhibition
C[C@H](CCC(=O)O)[C@H]1CC[C@H]2[C@@H]3[C@@H](O)C[C@@H]4C[C@H](O)CC[C@]4(C)[C@H]3CC[C@]12C [UDCA, ursodeoxycholic acid] | 36.7 ± 3.5 | 43 ± 4.5 | 31 to 73.7 | 34.2 ± 3.7 | 56.2 ± 5 | 58.7 ± 4.5 | 815 ± 49.2 | 596 ± 53 | 47.2 ± 3.2 |  | 
